# Entries after “also recorded” stand apart in the source; their conditions may differ.
# Columns and labels:
# DENV-1 = test: Inhibition of DENV replication in Huh-7 cells, viral RNA by quantitative real time PCR; assay type: cell-based, dengue virus; details: Dengue virus, DENV1, Huh-7, 48 h, mean ± SD of 3 experiments
# Experimental: (§1) ^a Each experiment was done in duplicate. The mean and standard deviation shown represent 3 independent (different date) experiments for each virus tested. Huh-7 cells were plated in 96-well plate at 10,000 cells/well in DMEM containing 10 % FBS in 100 μl volume one day prior to set up of the assay. The following day the medium was aspirated off and diluted virus at a multiplicity of infection of 0.5 or media was added to the assay and control wells, respectively. The virus was allowed to attach to the cells for two hours at 37°C in a humidified 5% C02 atmosphere while the dilutions of the test molecule were prepared. Test molecules (or medium as a control) were added after aspiration of the virus-containing media 2 hours post-infection in 3-fold dilutions at a final DMSO concentration of 1%. After 48 hrs, cells were washed and cellular RNA were isolated. In this study, we used a quantitative real time PCR method to quantitate dengue viral RNA in Huh-7 in the presence of inhibitors. Viral RNA and endogenous 18S rRNA control (Applied Bio System) was quantified by a real time PCR assay using the following primers. Dengue Reverse (Common to all the serotypes): 5’-[…]-3’, Dengue forward serotype 1: 5’-[…]-3’, Dengue forward serotype 2 or 3: 5’-[…]-3’, Dengue forward serotype 4: 5’-[…] -3’ and Dengue probe (Common to all the serotypes): 5'-/56-FAM/[…]/3BHQ_1/-3'. Taqman was performed in duplicate. IC50 was obtained using the following calculations. First ΔCt was calculated by subtracting 18S rRNA CT value from dengue RNA CT value. ΔCts from duplicate taqman assay were averaged. Then ΔΔCt was obtained by subtracting the average ΔCt of non-treated sample from the treated sample average ΔCt. Relative quantification was calculated using the following formula. Relative quantification = 2^-averageΔΔCT. The 50% inhibitory concentrations (EC50) were calculated using the sigmoidal dose-response model in Microsoft XLfit.
# DENV-2 = test: as above; assay type: cell-based, dengue virus; details: Dengue virus, DENV2, Huh-7, 48 h, mean ± SD of 3 experiments
# Experimental: as §1
# DENV-3 = test: as above; assay type: cell-based, dengue virus; details: Dengue virus, DENV3, Huh-7, 48 h, mean ± SD of 3 experiments
# Experimental: as §1
# DENV-4 = test: as above; assay type: cell-based, dengue virus; details: Dengue virus, DENV4, Huh-7, 48 h, mean ± SD of 3 experiments
# Experimental: as §1
# DENV = test: Plasma viremia (RT-PCR) in adult dengue patients, randomized placebo-controlled trial; assay type: in vivo, human; details: for Median time to first viremia level of <1000 copies/mL (IQR): Kaplan-Meier estimate, inpatient period; for AUC viremia, Mean / AUC viremia, Median (IQR): hour 0 to hour 168
# Experimental: (§2) Plasma samples were collected for virological and immunological investigations every 12 hours, beginning immediately before commencement of treatment, during the next 6 study days and on one occasion on study day 7 and day 14 (virological markers) or day 7 and day 28 (immunological markers). Viremia was measured using a validated, internally controlled reverse-transcription polymerase chain reaction assay in a Good Clinical Laboratory Practice environment. The limit of detection was 357 copies/mL for DENV-1, 72 copies/mL for DENV-2, 357 copies/mL for DENV-3, and 720 copies/mL for DENV-4. The presence of NS1 in plasma was determined using the Platelia NS1 assay (Bio-Rad) and was performed according to the manufacturer's instructions. Plasma cytokine levels (interleukin 1β [IL-1β], IL-2, IL-4, IL-5, IL-6, IL-10, IL-12p70, IL-13, interferon γ [IFN-γ], and tumor necrosis factor α [TNF-α]) were measured using a Bio-Plex human cytokine assay (Bio-Rad) and a multiplex array reader (Luminex Systems, Bio-Plex workstation from Bio-Rad Laboratories) according to the manufacturer's instructions. Briefly, 50-μL plasma samples were incubated with monoclonal antibody coupled beads. Complexes were washed twice, then incubated with biotinylated detection antibodies and, finally, labeled with streptavidin-phycoerythrin prior to analysis. Cytokine concentrations in samples were calculated by use of recombinant cytokines as standards and software provided by the manufacturer (Bio-Plex Manager). All research samples (for pharmacology, virology, and immunology) were collected and processed in the laboratory within 1 hour of venupuncture. All virological and immunological measurements and analyses were performed by analysts who were blind to the treatment assignment
# Key viremia endpoints of the study were as follows: area under the log-transformed viremia curve (AUC) from first dose to the end of study day 7 (study hour 168), calculated on the basis of the trapezoidal rule with values below the limit of detection replaced by half of the detection limit; time to first viremia level of <1000 copies/mL until study day 7; and time to the first negative NS1 test result. Other predefined key endpoints included fever clearance time, defined as the time from the start of treatment to the start of the first 48-hour period during which axillary temperature remained <37.5°C; maximum hematocrit level; maximum percentage increase of hematocrit level from baseline; platelet count nadir; and lowest recorded quality of life score.
# Time to event endpoints were compared between treatment groups on the basis of Cox regression and continuous endpoints on the basis of linear regression. Analyses were adjusted for the predose value of the respective endpoint; viremia and NS1 endpoints were additionally adjusted for dengue serotype. For all endpoints, we report P values of a trend test for a dose-response relationship with treatment entered as a continuous variable with values 0 (placebo), 1 (low-dose), and 2 (high-dose) into the regression model.
# [1] = Host immune response (plasma cytokines, whole blood transcripts) and virus sequence diversity in adult dengue patients; assay type: in vivo, human
# Experimental: as §2, with “Complexes were washed twice, then incubated with biotinylated detection antibodies and, finally, labeled with streptavidin-phycoerythrin prior to analysis.” left out, “All research samples (for pharmacology, virology, and immunology) were collected and processed in the laboratory within 1 hour of venupuncture. All virological and immunological measurements and analyses were performed by analysts who were blind to the treatment assignment” left out
# [2] = 4500 mg twice daily of balapiravir, HCV-infected persons, cited from earlier work
# [3] = High-dose (3000 mg twice a day, 5 days), n = 22
# [4] = Low-dose (1500 mg twice a day, 5 days), n = 10
smiles,measurement,setting,value
CC(C)C(=O)OC[C@@]1(N=[N+]=[N-])O[C@@H](n2ccc(N)nc2=O)[C@H](OC(=O)C(C)C)[C@@H]1OC(=O)C(C)C [Balapiravir],IC50,DENV-1; DENV-1 strain FR28 (clinical isolate),6.8 ± 1.1 µM
same,IC50,DENV-1; DENV-1 strain FR34 (clinical isolate),7 ± 2 µM
same,IC50,DENV-1; DENV-1 strain FR37 (clinical isolate),7.2 ± 2 µM
same,IC50,DENV-1; DENV-1 strain FR42 (clinical isolate),7.4 ± 2.3 µM
same,IC50,DENV-1; DENV-1 strain Thsman,8.8 ± 1.2 µM
same,IC50,"DENV-2; DENV-2 strain 32/0102 (clinical isolate), Huh-7 cells",3 ± 0.5 µM
same,IC50,"DENV-2; DENV-2 strain 32/0140 (clinical isolate), Huh-7 cells",1.9 ± 0.7 µM
same,IC50,"DENV-2; DENV-2 strain 33/0051 (clinical isolate), Huh-7 cells",2 ± 0.2 µM
same,IC50,"DENV-2; DENV-2 strain 33/0178 (clinical isolate), Huh-7 cells",2 ± 0.6 µM
same,IC50,"DENV-2; DENV-2 strain Th36, Huh-7 cells",4.6 ± 0.4 µM
same,IC50,"DENV-3; DENV-3 strain 33/0072 (clinical isolate), Huh-7 cells",3 ± 0.4 µM
same,IC50,"DENV-3; DENV-3 strain 33/0096 (clinical isolate), Huh-7 cells",3.4 ± 1.7 µM
same,IC50,"DENV-3; DENV-3 strain 33/0177 (clinical isolate), Huh-7 cells",3.2 ± 0.9 µM
same,IC50,"DENV-3; DENV-3 strain 33/0253 (clinical isolate), Huh-7 cells",4.4 ± 0.9 µM
same,IC50,"DENV-3; DENV-3 strain H87, Huh-7 cells",3.7 ± 0.9 µM
same,IC50,"DENV-4; DENV-4 strain H241, Huh-7 cells",11 ± 1 µM
same,IC50,"DENV-4; DENV-4 strain Phili/1567, Huh-7 cells",2 ± 0.4 µM
same,IC50,"DENV-4; DENV-4 strain Senga/DA, Huh-7 cells",6.5 ± 0.9 µM
same,IC50,"DENV-4; DENV-4 strain Venz/JQ, Huh-7 cells",5.5 ± 1.3 µM
same,"effect on virological markers (time to clearance of viremia, time to clearance of NS1 antigenemia, AUC)",DENV; 1500 mg or 3000 mg twice daily for 5 days versus placebo,did not measurably alter; also recorded: no measurable effect
same,Median time to first viremia level of <1000 copies/mL (IQR),DENV; [3],4 (3–5) d
same,"AUC viremia, Mean",DENV; [3],32.56 log10 copies/mL × d
same,"AUC viremia, Median (IQR)",DENV; [3],31.98 (27.60–34.98) log10 copies/mL × d
same,Median time to first viremia level of <1000 copies/mL (IQR),DENV; [4],"5 (4, NA) d"
same,"AUC viremia, Mean",DENV; [4],34.49 log10 copies/mL × d
same,"AUC viremia, Median (IQR)",DENV; [4],29.63 (27.41–39.86) log10 copies/mL × d
same,kinetics of plasma cytokine concentrations and whole blood transcriptional profile,[1]; balapiravir treatment versus placebo,not attenuated
same,treatment-related effects on whole blood gene transcript abundance,"[1]; baseline, study days 4 and 28, data not shown",no evidence of treatment-related effects
same,mean Cmin,[2],21 µM
same,Cmax,[2]; read-out: mean Cmax,88 µM
